Assay results: publication PMC9405102, “Targeted Modification and Structure-Activity Study of GL-29, an Analogue of the Antimicrobial Peptide Palustrin-2ISb” (Antibiotics, 2022)
Read-outs that look alike come from different tables or passages of the source. Where no end group is shown, it is not given here.

Columns and labels:
[1] = test system: E. coli (ATCC BAA-2340); format: cell-based, Escherichia coli
Description: (§1) The antimicrobial activity of the peptides was determined through the minimum inhibitory concentrations (MICs) and the minimum bactericidal concentration (MBCs) using the broth-dilution method in a 96-well plate, as described in the previous study. Six bacteria, including the Gram-positive bacteria, S. aureus (ATCC CRM 6538), MRSA (ATCC CRM 12493) and E. faecalis (NCTC 12697), the Gram-negative bacteria, E. coli (ATCC CRM 8739), K. pneumoniae (ATCC CRM 43816) and P. aeruginosa (ATCC CRM 9027), the yeast, C. albicans (ATCC CRM 10231) and clinical isolates, S. aureus (B042 V2E1 A), MRSA (B038 V1S1 A), E. coli (ATCC BAA-2340) and K. pneumoniae (ATCC BAA-1705) were used in these assays to evaluate the antimicrobial potency of the two peptides by determining their MICs and MBCs. All bacteria were cultured in MHB and the yeast, C. albicans was cultured in YPD broth overnight. Then, the microorganisms were sub-cultured and diluted to the final concentration of 2 × 10^5 CFU/mL to 5 × 10^5 CFU/mL. The Norfloxacin and amphotericin B were used as positive controls for the bacteria and yeast, respectively. The assay was repeated three times, with five replicates at each time.

[2] = test system: E. coli (ATCC CRM 8739); format: cell-based, Escherichia coli
Description: as §1

[3] = test system: E. faecalis (NCTC 12697); format: cell-based, Enterococcus faecalis
Description: as §1

[4] = test system: S. aureus (ATCC CRM 6538); format: cell-based, Staphylococcus aureus
Description: (§2) The MBIC and MBEC assays were performed to measure the inhibition and eradication of bacterial biofilm in the presence of different concentrations of peptides. Gram-positive bacteria were inoculated in Luria–Bertani (LB) broth at 37 °C overnight whereas Gram-negative bacteria were inoculated in tryptic soy broth (TSB), and then sub-cultured until reaching the logarithmic growth phase by measuring the OD values at a wavelength of 550nm. For the MBIC assay, 99 µL of diluted bacterial suspension (5 × 10^5 CFU/mL) was mixed with 1 µL of prepared peptide solutions in the wells of a round-bottomed 96-well plate, achieving the final concentrations from 512 to 1 µM, and then incubated at 37 °C for 24 h in a shaking incubator at 200 revolutions per minute (rpm). After this, the plate was washed twice by PBS and fixed with methanol for 30 min. For MBEC assay, 100 µL of diluted bacterial suspension (5 × 10^5 CFU/mL) was seeded into a round-bottomed 96-well plate and incubated at 37 °C for 24 h in a shaking incubator at 200 rpm to obtain mature biofilm. After this, plates were washed twice by PBS and incubated with different concentrations of peptide solution from 512 to 1 µM at 37 °C for 24 h. Afterwards, the plate was washed twice with PBS and fixed with methanol for 30 min. Then, both MBIC and MBEC plates were stained by 130 μL of 0.1% (g/v) crystal violet solutions for 30 min and washed with PBS until no apparent staining was observed. Evaporating crystal violet stains were dissolved by 33% (v/v) acetic acid, and the absorbance values were measured by a Synergy HT Microplate Reader (BioTek, Minneapolis, MN, USA) set to 595 nm. The minimum concentration that inhibited the formation of biofilm was defined when compared to the negative control group, as the MBIC. The minimum concentration that eradicated the biofilm was defined, when compared to the negative control group, as the MBEC. The biofilm assays were performed in triplicate.

[5] = test system: E. faecalis (NCTC 12697); format: cell-based, Enterococcus faecalis; remark: listed apart in the source
Description: as §2

[6] = test system: C. albicans (ATCC CRM 10231); format: cell-based, Candida albicans
Description: as §1

[7] = test system: MRSA (B038 V1S1 A); format: cell-based, methicillin-resistant S. aureus
Description: as §1

[8] = test system: MRSA (ATCC CRM 12493); format: cell-based, methicillin-resistant S. aureus
Description: as §1

[9] = test system: K. pneumoniae (ATCC BAA-1705); format: cell-based, Klebsiella pneumoniae
Description: as §1

[10] = test system: K. pneumoniae (ATCC CRM 43816); format: cell-based, Klebsiella pneumoniae
Description: as §1

[11] = test system: P. aeruginosa (ATCC CRM 9027); format: cell-based, Pseudomonas aeruginosa
Description: as §2

[12] = test system: P. aeruginosa (ATCC CRM 9027); format: cell-based, Pseudomonas aeruginosa; remark: listed apart in the source
Description: as §1

[13] = test system: K. pneumoniae (ATCC CRM 43816); format: cell-based, Klebsiella pneumoniae; remark: listed apart in the source
Description: as §2

[14] = test system: MRSA (ATCC CRM 12493); format: cell-based, methicillin-resistant S. aureus; remark: listed apart in the source
Description: as §2

[15] = test system: S. aureus (B042 V2E1 A); format: cell-based, Staphylococcus aureus
Description: as §1

[16] = test system: S. aureus (ATCC CRM 6538); format: cell-based, Staphylococcus aureus; remark: listed apart in the source
Description: as §1

[17] = test system: E. coli (ATCC CRM 8739); format: cell-based, Escherichia coli; remark: listed apart in the source
Description: as §2

[18] = KPC-producing resistant strain E. coli (ATCC BAA-2340)
[19] = clinical isolated strain MRSA (B038 V1S1 A)
[20] = KPC-producing resistant strain K. pneumoniae (ATCC BAA-1705)
[21] = clinical isolated strain S. aureus (B042 V2E1 A)

LFVNVLDKIR-NH2 [LF-10, LFVNVLDKIR-NH2]
>512 µM: MBC ([1]; ATCC BAA-2340) | MIC ([1]; ATCC BAA-2340) | MBC ([2]; ATCC CRM 8739) | MIC ([2]; ATCC CRM 8739) | MBC ([3]; NCTC 12697) | MIC ([3]; NCTC 12697) | MBEC ([4]; ATCC CRM 6538, 24 h) | MBIC ([4]; ATCC CRM 6538, 24 h) | MBEC ([5]; NCTC 12697, 24 h) | MBIC ([5]; NCTC 12697, 24 h) | MBC ([6]; ATCC CRM 10231) | MIC ([6]; ATCC CRM 10231) | MBC ([7]; B038 V1S1 A) | MIC ([7]; B038 V1S1 A) | MBC ([8]; ATCC CRM 12493) | MIC ([8]; ATCC CRM 12493) | MBC ([9]; ATCC BAA-1705) | MIC ([9]; ATCC BAA-1705) | MBC ([10]; ATCC CRM 43816) | MIC ([10]; ATCC CRM 43816) | MBEC ([11]; ATCC CRM 9027, 24 h) | MBIC ([11]; ATCC CRM 9027, 24 h) | MBC ([12]; ATCC CRM 9027) | MIC ([12]; ATCC CRM 9027) | MBEC ([13]; ATCC CRM 43816, 24 h) | MBIC ([13]; ATCC CRM 43816, 24 h) | MBEC ([14]; ATCC CRM 12493, 24 h) | MBIC ([14]; ATCC CRM 12493, 24 h) | MBC ([15]; B042 V2E1 A) | MIC ([15]; B042 V2E1 A) | MBC ([16]; ATCC CRM 6538) | MIC ([16]; ATCC CRM 6538) | MBEC ([17]; ATCC CRM 8739, 24 h) | MBIC ([17]; ATCC CRM 8739, 24 h)

VNVLDKIR-NH2 [VN-8, VNVLDKIR-NH2]
>512 µM: MBC [1, 18] | MIC [1, 18] | MBC ([2]; E. coli (ATCC CRM 8739)) | MIC ([2]; E. coli (ATCC CRM 8739)) | MBC ([3]; E. faecalis (NCTC 12697)) | MIC ([3]; E. faecalis (NCTC 12697)) | MBEC ([4]; biofilm eradication, S. aureus (ATCC CRM 6538)) | MBIC ([4]; biofilm formation, S. aureus (ATCC CRM 6538)) | MBEC ([5]; biofilm eradication, E. faecalis (NCTC 12697)) | MBIC ([5]; biofilm formation, E. faecalis (NCTC 12697)) | MBC ([6]; C. albicans (ATCC CRM 10231)) | MIC ([6]; C. albicans (ATCC CRM 10231)) | MBC [7, 19] | MIC [7, 19] | MBC ([8]; MRSA (ATCC CRM 12493)) | MIC ([8]; MRSA (ATCC CRM 12493)) | MBC [9, 20] | MIC [9, 20] | MBC ([10]; K. pneumoniae (ATCC CRM 43816)) | MIC ([10]; K. pneumoniae (ATCC CRM 43816)) | MBEC ([11]; biofilm eradication, P. aeruginosa (ATCC CRM 9027)) | MBIC ([11]; biofilm formation, P. aeruginosa (ATCC CRM 9027)) | MBC ([12]; P. aeruginosa (ATCC CRM 9027)) | MIC ([12]; P. aeruginosa (ATCC CRM 9027)) | MBEC ([13]; biofilm eradication, K. pneumoniae (ATCC CRM 43816)) | MBIC ([13]; biofilm formation, K. pneumoniae (ATCC CRM 43816)) | MBEC ([14]; biofilm eradication, MRSA (ATCC CRM 12493)) | MBIC ([14]; biofilm formation, MRSA (ATCC CRM 12493)) | MBC [15, 21] | MIC [15, 21] | MBC ([16]; S. aureus (ATCC CRM 6538)) | MIC ([16]; S. aureus (ATCC CRM 6538)) | MBEC ([17]; biofilm eradication, E. coli (ATCC CRM 8739)) | MBIC ([17]; biofilm formation, E. coli (ATCC CRM 8739))
